Assay results: ChEMBL document CHEMBL5512649, “Drug development and potential targets for Cushing's syndrome” (Eur J Med Chem, 2024)

Tests used:
[1] = target: Nuclear factor NF-kappa-B complex (Homo sapiens, UniProt P19838+Q00653+Q04206); experiment: Inhibition of NF-kappaB (unknown origin); assay type: protein-complex assay
[2] = target: Cyclin-dependent kinase 4 (Homo sapiens, UniProt P11802); experiment: Inhibition of CDK4 (unknown origin)
[3] = target: Cyclin-dependent kinase 9 (Homo sapiens, UniProt P50750); experiment: Inhibition of CDK9 (unknown origin)
[4] = target: DNA (cytosine-5)-methyltransferase 1 (Homo sapiens, UniProt P26358); experiment: Inhibition of DNMT1 (unknown origin)
[5] = target: T1, Histone acetyltransferase type B catalytic subunit (Homo sapiens, UniProt O14929); experiment: Inhibition of HAT1 (unknown origin)
T1 sequence (O14929 whole entry): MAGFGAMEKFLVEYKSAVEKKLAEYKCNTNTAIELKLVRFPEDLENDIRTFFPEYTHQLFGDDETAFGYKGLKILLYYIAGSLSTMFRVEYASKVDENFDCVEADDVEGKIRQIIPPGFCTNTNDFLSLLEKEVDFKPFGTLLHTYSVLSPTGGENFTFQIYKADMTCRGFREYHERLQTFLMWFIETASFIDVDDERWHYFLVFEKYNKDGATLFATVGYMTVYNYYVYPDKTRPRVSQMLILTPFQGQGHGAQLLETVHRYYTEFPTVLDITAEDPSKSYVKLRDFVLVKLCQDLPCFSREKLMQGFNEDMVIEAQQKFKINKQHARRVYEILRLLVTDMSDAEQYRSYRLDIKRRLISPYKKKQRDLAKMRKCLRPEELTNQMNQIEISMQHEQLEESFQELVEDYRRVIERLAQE

[6] = target: ATP-dependent translocase ABCB1 (Homo sapiens, UniProt P08183); experiment: Inhibition of MDR1 (unknown origin)
[7] = target: Cyclin-dependent kinase 1 (Homo sapiens, UniProt P06493); experiment: Inhibition of CDK1 (unknown origin)
[8] = target: Cyclin-dependent kinase 6 (Homo sapiens, UniProt Q00534); experiment: Inhibition of CDK6 (unknown origin)
Chain of Cyclin-dependent kinase 6 (Q00534 whole entry): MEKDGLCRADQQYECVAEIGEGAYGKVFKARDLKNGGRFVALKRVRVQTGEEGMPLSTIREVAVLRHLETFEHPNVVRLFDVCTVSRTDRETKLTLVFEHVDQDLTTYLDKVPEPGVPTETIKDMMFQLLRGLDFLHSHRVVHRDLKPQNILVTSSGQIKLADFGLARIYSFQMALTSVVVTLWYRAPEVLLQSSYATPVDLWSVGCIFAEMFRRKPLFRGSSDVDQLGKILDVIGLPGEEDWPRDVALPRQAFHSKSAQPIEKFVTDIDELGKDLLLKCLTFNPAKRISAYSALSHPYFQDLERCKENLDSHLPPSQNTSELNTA

Chain of Nuclear factor NF-kappa-B complex (P19838 1-433 limits assumed): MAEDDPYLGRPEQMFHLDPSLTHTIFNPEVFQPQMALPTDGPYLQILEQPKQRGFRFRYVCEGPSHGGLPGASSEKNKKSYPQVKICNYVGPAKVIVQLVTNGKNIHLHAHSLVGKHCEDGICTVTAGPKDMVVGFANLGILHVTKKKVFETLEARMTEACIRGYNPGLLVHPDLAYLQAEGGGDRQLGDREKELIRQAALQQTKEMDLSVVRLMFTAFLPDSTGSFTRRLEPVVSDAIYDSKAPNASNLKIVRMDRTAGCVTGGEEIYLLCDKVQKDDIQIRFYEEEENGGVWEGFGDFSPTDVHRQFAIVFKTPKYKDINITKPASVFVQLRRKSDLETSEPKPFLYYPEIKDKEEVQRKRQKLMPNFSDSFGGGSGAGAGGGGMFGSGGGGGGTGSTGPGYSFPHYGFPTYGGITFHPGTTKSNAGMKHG
Chain of Nuclear factor NF-kappa-B complex (Q00653 1-454 limits assumed): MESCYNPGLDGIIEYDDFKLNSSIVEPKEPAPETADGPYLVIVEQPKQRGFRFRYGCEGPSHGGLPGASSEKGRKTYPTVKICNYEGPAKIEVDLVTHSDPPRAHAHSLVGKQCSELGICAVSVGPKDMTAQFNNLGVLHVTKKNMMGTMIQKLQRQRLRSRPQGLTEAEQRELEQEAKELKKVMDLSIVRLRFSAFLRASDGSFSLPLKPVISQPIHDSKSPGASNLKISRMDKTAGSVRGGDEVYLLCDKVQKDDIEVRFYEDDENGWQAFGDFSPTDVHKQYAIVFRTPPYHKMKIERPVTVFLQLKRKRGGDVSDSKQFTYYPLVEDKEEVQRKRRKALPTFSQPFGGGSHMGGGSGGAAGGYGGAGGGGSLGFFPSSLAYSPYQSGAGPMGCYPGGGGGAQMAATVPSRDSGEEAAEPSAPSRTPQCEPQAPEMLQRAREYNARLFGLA
Chain of Nuclear factor NF-kappa-B complex (Q04206 whole entry): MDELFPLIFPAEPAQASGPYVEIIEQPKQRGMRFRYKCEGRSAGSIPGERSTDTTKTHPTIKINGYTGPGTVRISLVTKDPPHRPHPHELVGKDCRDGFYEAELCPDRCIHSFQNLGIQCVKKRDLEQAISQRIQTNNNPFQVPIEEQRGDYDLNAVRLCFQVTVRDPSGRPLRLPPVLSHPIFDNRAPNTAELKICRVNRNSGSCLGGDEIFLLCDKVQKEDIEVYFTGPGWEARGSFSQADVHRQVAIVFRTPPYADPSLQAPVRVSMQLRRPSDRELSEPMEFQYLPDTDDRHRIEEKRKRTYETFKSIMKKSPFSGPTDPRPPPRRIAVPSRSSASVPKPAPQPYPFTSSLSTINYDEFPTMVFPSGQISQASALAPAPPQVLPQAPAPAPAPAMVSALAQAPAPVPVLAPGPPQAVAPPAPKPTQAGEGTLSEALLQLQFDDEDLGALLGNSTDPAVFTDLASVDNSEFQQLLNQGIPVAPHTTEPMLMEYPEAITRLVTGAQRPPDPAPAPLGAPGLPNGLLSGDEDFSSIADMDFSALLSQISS
Chain of Cyclin-dependent kinase 1 (P06493 whole entry): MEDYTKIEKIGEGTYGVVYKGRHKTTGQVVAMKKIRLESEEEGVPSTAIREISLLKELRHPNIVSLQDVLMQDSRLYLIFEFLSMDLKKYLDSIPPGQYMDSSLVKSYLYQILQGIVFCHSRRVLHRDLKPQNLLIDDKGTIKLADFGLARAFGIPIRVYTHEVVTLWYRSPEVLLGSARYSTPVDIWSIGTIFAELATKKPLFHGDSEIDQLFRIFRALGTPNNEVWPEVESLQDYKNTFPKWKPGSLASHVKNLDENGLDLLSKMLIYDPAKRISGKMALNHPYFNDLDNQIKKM
Chain of ATP-dependent translocase ABCB1 (P08183 whole entry): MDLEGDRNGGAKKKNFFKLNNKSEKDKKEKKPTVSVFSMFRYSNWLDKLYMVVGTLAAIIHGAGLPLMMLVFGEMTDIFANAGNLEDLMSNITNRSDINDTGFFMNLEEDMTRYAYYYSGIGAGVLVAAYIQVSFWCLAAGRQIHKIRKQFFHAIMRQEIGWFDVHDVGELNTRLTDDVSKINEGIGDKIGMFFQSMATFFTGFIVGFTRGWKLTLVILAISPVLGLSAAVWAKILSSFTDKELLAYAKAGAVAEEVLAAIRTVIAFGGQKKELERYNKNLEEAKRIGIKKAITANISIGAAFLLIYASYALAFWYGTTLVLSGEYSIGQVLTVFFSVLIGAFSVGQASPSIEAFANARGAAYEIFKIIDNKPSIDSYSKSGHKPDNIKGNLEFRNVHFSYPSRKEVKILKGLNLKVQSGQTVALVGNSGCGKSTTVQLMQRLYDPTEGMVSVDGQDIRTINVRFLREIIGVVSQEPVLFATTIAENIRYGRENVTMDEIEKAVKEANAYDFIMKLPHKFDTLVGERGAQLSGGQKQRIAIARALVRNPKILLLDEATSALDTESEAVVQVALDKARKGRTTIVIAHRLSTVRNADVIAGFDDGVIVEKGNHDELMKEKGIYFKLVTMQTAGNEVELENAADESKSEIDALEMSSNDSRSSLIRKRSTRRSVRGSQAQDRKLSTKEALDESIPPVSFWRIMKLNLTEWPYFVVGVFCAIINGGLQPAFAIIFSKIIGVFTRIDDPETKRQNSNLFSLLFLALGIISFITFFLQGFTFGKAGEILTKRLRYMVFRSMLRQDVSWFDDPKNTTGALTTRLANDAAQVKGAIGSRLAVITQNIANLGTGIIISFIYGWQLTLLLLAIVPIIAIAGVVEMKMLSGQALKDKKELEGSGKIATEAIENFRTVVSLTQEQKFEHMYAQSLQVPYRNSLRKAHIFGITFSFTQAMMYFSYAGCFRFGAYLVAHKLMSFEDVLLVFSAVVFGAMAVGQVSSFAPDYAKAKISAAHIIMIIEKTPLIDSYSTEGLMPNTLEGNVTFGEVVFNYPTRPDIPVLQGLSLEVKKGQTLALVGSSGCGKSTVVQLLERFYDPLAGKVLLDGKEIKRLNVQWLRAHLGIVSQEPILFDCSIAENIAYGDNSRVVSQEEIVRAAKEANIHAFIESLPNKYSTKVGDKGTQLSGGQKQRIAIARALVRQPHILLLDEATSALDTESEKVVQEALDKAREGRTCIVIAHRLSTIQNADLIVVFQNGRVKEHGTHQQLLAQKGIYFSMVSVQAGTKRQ
Chain of Cyclin-dependent kinase 4 (P11802 whole entry): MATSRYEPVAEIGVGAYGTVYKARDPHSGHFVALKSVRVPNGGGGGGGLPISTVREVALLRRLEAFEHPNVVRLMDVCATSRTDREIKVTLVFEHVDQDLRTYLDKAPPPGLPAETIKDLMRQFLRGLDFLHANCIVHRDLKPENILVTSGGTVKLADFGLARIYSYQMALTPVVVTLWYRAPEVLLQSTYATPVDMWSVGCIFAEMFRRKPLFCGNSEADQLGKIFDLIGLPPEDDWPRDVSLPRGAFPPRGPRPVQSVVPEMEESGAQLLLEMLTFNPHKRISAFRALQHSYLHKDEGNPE
Chain of Cyclin-dependent kinase 9 (P50750 whole entry): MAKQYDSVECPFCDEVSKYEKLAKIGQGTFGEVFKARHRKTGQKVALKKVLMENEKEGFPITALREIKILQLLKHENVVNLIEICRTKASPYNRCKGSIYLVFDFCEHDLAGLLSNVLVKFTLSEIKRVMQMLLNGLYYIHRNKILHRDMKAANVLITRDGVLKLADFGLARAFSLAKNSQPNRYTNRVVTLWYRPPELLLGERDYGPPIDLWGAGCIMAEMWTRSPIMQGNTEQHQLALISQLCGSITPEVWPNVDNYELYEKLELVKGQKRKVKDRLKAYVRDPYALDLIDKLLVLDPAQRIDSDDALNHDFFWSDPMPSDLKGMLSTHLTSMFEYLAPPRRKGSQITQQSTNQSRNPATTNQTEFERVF

`CC(C)C[C@H](NC(=O)[C@H](Cc1ccccc1)NC(=O)c1cnccn1)B(O)O` [BORTEZOMIB] was tested, and the IC50 [1] was ≤ 10 nM.

Compound `O=C(O)c1cc(/N=N/c2ccc(S(=O)(=O)Nc3ccccn3)cc2)ccc1O` [SULFASALAZINE] has an IC50 [1] of 10000 nM.

`CC(C)[C@]12O[C@H]1[C@@H]1O[C@]13[C@]1(O[C@H]1C[C@H]1C4=C(CC[C@@]13C)C(=O)OC4)[C@@H]2O` [TRIPTOLIDE] showed an IC50 [1] of 10 nM.

In the case of `O=C(Oc1ccccc1C(=O)O)c1ccccc1O` [SALSALATE], the IC50 [1] is reported as ≤ 2000 nM.

`CN1CC[C@@H](c2c(O)cc(O)c3c(=O)cc(-c4ccc(C(F)(F)F)cc4Cl)oc23)[C@@H]1CO` [VORUCICLIB] showed an IC50 [2] of 400 nM.

Work on `CN1CC[C@H](c2c(OP(=O)(O)O)cc(O)c3c(=O)cc(-c4ccccc4Cl)oc23)[C@H](O)C1` [TP-1287] yielded an IC50 [3] of 10 nM.

With `C[C@@H]1C[C@H]2[C@@H]3CCC4=CC(=O)C=C[C@]4(C)C3=CC[C@]2(C)[C@@]1(O)C(=O)CO` [VAMOROLONE] the IC50 [1] was 65.9 nM.

In the case of `COc1cc(/C=C/C(=O)CC(=O)/C=C/c2ccc(O)c(OC)c2)ccc1O` [CURCUMIN], the IC50 [4] is reported as ≤ 1000 nM, the IC50 [5] is reported as ≤ 1000 nM and the IC50 [6] is reported as ≤ 1000 nM.

With `CNC(=O)c1nn(C)c2c1C(C)(C)Cc1cnc(Nc3ccc(N4CCN(C)CC4)cc3)nc1-2` [MILCICLIB] the IC50 [7] was 45 nM.

`CC(C)c1c2cc(-c3nc(Nc4ccc(N5CCNCC5)cn4)ncc3F)ccc2nn1C` [CULMERCICLIB] was tested, and the IC50 [8] was 2.4 nM.
